Columns and labels:
human skin fibroblast [1] = assay: Gene transfer efficiency with two retrovirus vectors, AcGFP1/mStrawberry double positive cells by flow cytometer (Example 8); type: cell-based; conditions: 3 days after gene transfer
Method: According to the same manner as that of Example 1-(1), immobilization of Retronectin on a culture plate was carried out, provided that a non-treatment 24-well culture plate (manufactured by Becton, Dickinson and Company) was used, and a Retronectin solution was added to each well by each 500 μL.
Gene transfer with Retronectin was carried out according to the same manner as that of Example 3-(2), provided that a retrovirus vector was a combination of DON-am-AcGFP1 and DONAI2-am-mStrawberry, and gene transfer was carried out by mixing each 250 μL of virus solutions. Further, a group of mixing 250 μL of a virus solution diluted 50-fold with 10F-DMEM was also set. In addition, a cell was suspended in a medium to 4×10^4 cells/mL, and each 500 μL was added to each well.
Gene transfer with polybrene was carried out in the same combination as that of retrovirus vectors according to the same manner as that of gene transfer with polybrene of Example 7-(2), provided that the cell was suspended in a medium to 4×10^4 cells/mL, and each 500 μL was added to each well of a 24-well culture plate (manufactured by Corning). […]
After 3 days from gene transfer operation, the cells were recovered, and AcGFP1 positive and mStrawberry positive cells were measured with a flow cytometer (CytomicsFC500, manufactured by Beckmann Coulter Inc.).

human skin fibroblast [2] = assay: iPS cell colony induction, gene transfer with Retronectin or polybrene once or two times (Example 7); type: cell-based; conditions: 28th day of culture, N=2
Method: Regarding gene transfer with a retrovirus vector, introduction was carried out once or two times using Retronectin or polybrene, and induction of a pluripotent stem cell was carried out, followed by comparison.
Regarding gene transfer with Retronectin, according to the same manner as that of Example 4-(2), gene transfer was carried out. Gene transfer with polybrene was carried out as follows. […] Each 700 μL of the virus solutions prepared by Preparation Example 2 were mixed in a combination of the condition C of Table 3, polybrene was added to a final concentration of 8 μg/mL to prepare a retrovirus vector mixed solution, the supernatant was removed from the plate on which the cell had been cultured, this retrovirus vector mixed solution was added, and culturing was initiated (day 0 of culturing).
Gene transfer with polybrene was carried out according to the same manner as that of gene transfer with polybrene of Example 7-(2). That is, the supernatant was removed from the plate on which the cell had been cultured, a retrovirus vector mixed solution prepared similarly was added, and culturing was continued.
On the sixth day of culture, according to the same manner as that of Example 5-(4), the gene-introduced cell was seeded on a feeder cell, and culturing was continued, provided that the gene-introduced cell was seeded by each 1.75×10^4 cells.
The number in the Table indicates an average value of N=2.

Retronectin: fragment of fibronectin having a heparin-II binding region (registered trademark, CH-296, TAKARA BIO INC.)
Ratio of double positive cells (human skin fibroblast [1]; virus 50-fold dilution): 66.5% | Ratio of double positive cells (human skin fibroblast [1]; virus solution undiluted): 40.7% | Number of iPS cell colonies (human skin fibroblast [2]; gene transfer once, with protein starvation treatment): 25.5 | Number of iPS cell colonies (human skin fibroblast [2]; gene transfer once, without protein starvation treatment): 9.5 | Number of iPS cell colonies (human skin fibroblast [2]; gene transfer two times, with protein starvation treatment): 30.0 | Number of iPS cell colonies (human skin fibroblast [2]; gene transfer two times, without protein starvation treatment): 26.0
